{"source": "patent US20250236595A1", "about": "(priority 2020, published 2025)", "key": {"PAC1-R [1]": {"test_system": "PAC1-R", "test": "PAC1-R expression in SHSY-5Y cells, confocal immunofluorescence", "type": "cell-based, Human", "settings": "100 μM SPAM1, incubated 1 h", "experimental": "Human nerve cells SHSY-5Y naturally expressing the PAC1-R were cultured until the fusion rate was more than 80%, added with 100 μM SPAM1, and observed by confocal immunofluorescence after being incubated for 1 h."}, "corticosterone": {"test_system": "corticosterone", "test": "Level of corticosterone (COR) in serum of mice after intraperitoneal injection (ELISA)", "type": "in vivo, BALb/c mice", "settings": "SPAM1 10, 100 and 1000 μmol/kg intraperitoneal; blood 1 h after injection; vs normal saline control", "experimental": "Forty BALb/c mice (SPF grade, 8-10 weeks old, weighing 22-27 g, half female and half male) were randomly divided into following […], with 10 mice in each group: 1) SPAM1 low-dose group, intraperitoneal injection, 10 μmol/kg; 2) SPAM1 medium-dose group, intraperitoneal injection, 100 μmol/kg; 3) SPAM1 high-dose group, intraperitoneal injection, 1000 μmol/kg; 4) normal control group, injected with normal saline intraperitoneally; 1 h after the injection, blood was collected from the orbit, and the level of COR in serum was measured by the solid phase sandwich enzyme-linked immunosorbent assay (ELISA)."}, "[2]": {"test_system": "D-galactose-induced aging model", "test": "D-galactose-induced aging model, testicular decline: testosterone in serum (ELISA)", "type": "in vivo, BALB/c male mice", "settings": "male mice, D-galactose 200 mg/kg/d*42d; SPAM1 10 or 100 μmol/kg/d*28d i.p. from day 15; high dose more significant than low", "experimental": "(§1) A D-galactose-induced aging model was used. Forty BALB/c male mice (SPF grade, 8-10 weeks old, weighing 22-27 g) were randomly divided into following 4 groups, with 10 mice in each group: 1) aging model group, injected with D-galactose (200 mg/kg/d*42d) subcutaneously at the neck or back; 2) SPAM1 low-dose treatment group, injected with D-galactose as in group 1), and injected with low-dose SPAM1 (10 μmol/kg/d*28d) intraperitoneally on day 15; 3) SPAM1 high-dose treatment group, injected with D-galactose as in group 1), and injected with high-dose SPAM1 (100 μmol/kg/d*28d) intraperitoneally on day 15; and 4) normal control group, injected with normal saline intraperitoneally instead of D-galactose and SPAM1; 24 h after all injections, blood was collected from the orbit, and the level of testosterone in serum was assayed by the enzyme-linked immunosorbent assay (ELISA)."}, "LPS-induced sepsis model": {"test_system": "LPS-induced sepsis model", "test": "LPS-induced sepsis model, survival", "type": "in vivo, BALB/c mice", "settings": "SPAM1 10 or 100 μmol/kg i.p. 30 min before 15 mg/kg LPS at the tail vein; survival recorded for 8 days", "experimental": "An LPS-induced sepsis model was used. Forty BALB/c mice (SPF grade, half male and half female, 8-10 weeks old, weighing 22-27 g) were randomly divided into following 4 groups, with 10 mice in each group: 1) sepsis model group, injected with normal saline intraperitoneally, and 30 min later, injected with 15 mg/kg LPS at the tail vein; 2) SPAM1 low-dose treatment group, injected with low-dose SPAM1 (10 μmol/kg) intraperitoneally, and 30 min later, injected with 15 mg/kg LPS at the tail vein; 3) SPAM1 high-dose treatment group, injected with high-dose SPAM1 (100 μmol/kg) intraperitoneally, and 30 min later, injected with 15 mg/kg LPS at the tail vein; and 4) normal control group, injected with normal saline intraperitoneally, and 30 min later, injected with normal saline at the tail vein; the survival of mice was observed every 24 h, and the survival rate of each group was recorded for 8 days."}, "PACAP": {"test_system": "PACAP", "test": "Level of PACAP in serum of mice after intraperitoneal injection (ELISA kit)", "type": "in vivo, BALb/c mice", "settings": "SPAM1 10 and 100 μmol/kg intraperitoneal; blood 30 min after injection; vs normal saline control", "experimental": "Thirty BALb/c mice (SPF grade, 8-10 weeks old, weighing 22-27 g, half female and half male) were randomly divided into following […], with 10 mice in each group: 1) SPAM1 low-dose group, intraperitoneal injection, 10 μmol/kg; 2) SPAM1 high-dose group, intraperitoneal injection, 100 μmol/kg; 3) normal control group, injected with normal saline intraperitoneally; 30 min after the injection, blood was collected from the orbit, and serum was assayed for PACAP using an ELISA kit."}, "PAC1-R [3]": {"test_system": "PAC1-R", "test": "PAC1-R expression in Neuro2a cells, western blot with anti-PAC1-R (C-terminal) antibody", "type": "cell-based, Mouse", "settings": "SPAM1 at 1 μM, 10 μM and 100 μM, incubated 1 h", "experimental": "Mouse nerve cells Neuro2a naturally expressing the PAC1-R were cultured until the fusion rate was more than 80%, added with SPAM1 at 1 μM, 10 μM and 100 μM, and disrupted after being incubated for 1 h. The supernatant of the whole cell lysate was subjected to SDS-PAGE and the western blot assay using the anti-PAC1-R (C-terminal) antibody."}, "[4]": {"test_system": "dexamethasone-induced thymus decline model", "test": "Dexamethasone-induced thymus decline model, thymus index", "type": "in vivo, BALB/c mice", "settings": "dexamethasone 25 mg/kg/d*2d i.p.; SPAM1 10 or 100 μmol/kg/d*2d i.p. at the same time", "experimental": "A dexamethasone-induced thymus decline model was used. Forty BALB/c mice (SPF grade, half male and half female, 8-10 weeks old, weighing 22-27 g) were randomly divided into following 4 groups, with 10 mice in each group: 1) aging model group, injected with dexamethasone (25 mg/kg/d*2d) intraperitoneally; 2) SPAM1 low-dose treatment group, injected with dexamethasone as in group 1), and injected with SPAM1 at a low dose (10 μmol/kg/d*2d) intraperitoneally at the same time; 3) SPAM1 high-dose treatment group, injected with dexamethasone as in group 1), and injected with SPAM1 at a high dose (100 μmol/kg/d*2d) intraperitoneally at the same time; and 4) normal control group, injected with normal saline intraperitoneally instead of dexamethasone and SPAM1; 24 h after the completion of the final injection, the mice were weighed and sacrificed by cervical dislocation method, the thymus of the mice was weighed, and the thymus index was calculated according to: thymus index=thymus weight (mg)/body weight (g)."}, "[5]": {"test_system": "D-galactose-induced aging model", "test": "D-galactose-induced aging model, ovarian decline: estradiol and luteinizing hormone in serum (ELISA)", "type": "in vivo, BALB/c female mice", "settings": "female mice, D-galactose 200 mg/kg/d*42d; SPAM1 10 or 100 μmol/kg/d*28d i.p. from day 15; high dose more significant than low", "experimental": "as §1, with “female” for “male”, “after the completion of” for “after”, “estradiol and luteinizing hormone” for “testosterone”"}, "[6]": {"settings": "cited from earlier work"}}, "data": [{"compound": "O=C(CCCc1nc2ccccc2c(=O)[nH]1)NCc1ccc(C(=O)O)cc1", "values": [{"measurement": "red fluorescent signal targeting PAC1-R in SHSY-5Y cells", "setting": "PAC1-R [1]", "result": "significantly up-regulated"}, {"measurement": "level of COR in serum", "setting": "corticosterone", "result": "increased the level of COR in a concentration-dependent manner"}, {"measurement": "level of testosterone in serum of aging mice", "setting": "[2]", "result": "effectively up-regulated"}, {"measurement": "death rate / survival rate in LPS-induced sepsis", "setting": "LPS-induced sepsis model", "result": "effectively inhibited death caused by LPS-induced sepsis"}, {"measurement": "level of PACAP in serum", "setting": "PACAP", "result": "effectively up-regulated the level of PACAP in serum and the up-regulation was concentration-dependent"}, {"measurement": "expression of PAC1-R in nerve cells Neuro2a (western blot)", "setting": "PAC1-R [3]", "result": "up-regulated the expression of PAC1-R in nerve cells in a concentration-dependent manner"}, {"measurement": "thymus index (thymus weight (mg)/body weight (g))", "setting": "[4]", "result": "effectively inhibited the dexamethasone-induced down-regulation of thymus index"}, {"measurement": "level of estradiol in serum of aging mice", "setting": "[5]", "result": "effectively up-regulated"}, {"measurement": "level of luteinizing hormone in serum of aging mice", "setting": "[5]", "result": "effectively up-regulated"}]}, {"compound": "PACAP38", "values": [{"measurement": "in vivo half-life", "setting": "[6]", "result": "less than 2 min"}]}]}
